Experiment [1] has as its system B7-H3. Briefly: kd (s^-1). An excerpt: (§1) Table printed on a drawing sheet, FIG. 4F
Head of the field: kd (s^-1)
(§2) The patent's description of the figure: FIGS. 4A-4G. (FIG. 4A) Selection schematic detailing the selection process for identifying binders against B7-H3. (FIG. 4B) qPCR results of the mTG mediated B7-H3 selection. (FIG. 4C) B7-H3 selection results and complete NGS analysis of B7-H3 hits. (FIG. 4D) NGS data of the selection hits. […] Arrow indicates the peptide pursued for binding validation. (FIG. 4E) EIC ([M+2], 948.91 m/z) traces corresponding to the product of the mTG reaction with linear B1.1 peptide and the synthetic lactam, disulfide peptide. (FIG. 4F) Surface Plasmon Resonance (SPR) analysis of the selected peptide (B1.1), the Met9Nle variant, and the linear variant. […] The selected B1.1 and the Met9Nle variant were analyzed at analyte concentrations of 7.5, 15, 30, 60, 120 nM. The linear variant was analyzed at analyte concentrations of 50, 100, 200, 400, 800 nM. […] (FIG. 4G) Individual SPR curves. Fitted curve and raw data are shown.
(§3) First copying reader's note: Brackets drawn on the SELECTED and MET9NLE sequences join C to C (above) and Q to K (below), marking a bicyclic peptide; LINEAR has no brackets.
(§4) Where the first naming reader finds the target: passage: Binding affinities were assessed for each peptide by surface plasmon resonance (SPR) against biotinylated B7-H3.

Experiment [2] deals with T1, biotinylated B7-H3 (Homo sapiens, UniProt Q5ZPR3).
T1 sequence (Q5ZPR3 29-534): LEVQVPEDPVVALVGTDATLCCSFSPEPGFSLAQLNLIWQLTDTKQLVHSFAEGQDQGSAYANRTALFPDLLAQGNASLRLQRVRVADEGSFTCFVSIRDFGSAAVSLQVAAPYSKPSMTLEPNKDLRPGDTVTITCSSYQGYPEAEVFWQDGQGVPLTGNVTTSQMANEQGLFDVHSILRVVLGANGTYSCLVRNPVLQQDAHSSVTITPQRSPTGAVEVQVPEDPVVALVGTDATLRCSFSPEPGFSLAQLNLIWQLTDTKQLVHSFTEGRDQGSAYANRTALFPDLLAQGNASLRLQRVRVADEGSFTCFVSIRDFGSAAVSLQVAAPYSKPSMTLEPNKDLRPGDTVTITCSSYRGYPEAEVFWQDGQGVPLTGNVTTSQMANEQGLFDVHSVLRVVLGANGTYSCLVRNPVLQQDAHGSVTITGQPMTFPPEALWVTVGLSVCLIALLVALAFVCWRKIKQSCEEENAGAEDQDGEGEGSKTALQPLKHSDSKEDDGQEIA
Nature of the experiment: Surface Plasmon Resonance (SPR) analysis against biotinylated B7-H3. The following applies: biotinylated B7-H3, 25° C., 1:1 binding kinetics model, read-out: binding affinity towards B7-H3.
Description: as §2, with “FIGS.” for “The patent's description of the figure: FIGS.”
(§5) Surface Plasmon Resonance (SPR) analysis. Binding kinetics between our selected peptide (and variants) and biotinylated B7-H3 (B7-H3b) were assessed through SPR analysis using a BIACORE 8K SPR system (GE Healthcare). The running buffer was 1×PBS pH7.5, 0.05% TWEEN® 20 and all analysis was carried out at 25° C. B7-H3b was loaded onto a NeutrAvidin SPR Chip (Series S Sensor Chip NA, 29407997, Cytiva) at a flow rate of […] to a surface density of 1000-1500 response units. Analyte was then injected over a series of five concentrations and quantified by BIACORE single-cycle kinetics method. For our selected peptide (B1.1) and the Met9Nle variant a range of 7.5, 15, 30, 60, 120 nM were run. For the linear variant concentrations of 50, 100, 200, 400, 800 nM were run. Binding sonograms were generated using a standard 1:1 binding kinetics model and kinetics constants determined using standard BIACORE evaluation software.

Experiment [3] has as its target T2, murine B7-H3 (mB7-H3) (Mus musculus, UniProt Q8VE98).
T2 sequence (Q8VE98 29-316): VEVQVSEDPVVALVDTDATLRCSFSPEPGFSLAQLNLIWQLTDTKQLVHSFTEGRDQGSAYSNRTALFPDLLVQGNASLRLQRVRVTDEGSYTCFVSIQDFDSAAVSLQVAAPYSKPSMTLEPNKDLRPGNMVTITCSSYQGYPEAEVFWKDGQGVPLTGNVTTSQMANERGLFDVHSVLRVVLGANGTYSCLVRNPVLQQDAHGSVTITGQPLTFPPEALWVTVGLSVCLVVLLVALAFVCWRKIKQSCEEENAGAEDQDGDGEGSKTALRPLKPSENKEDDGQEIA
Briefly: SPR binding to murine B7-H3. On the procedure:
FIGS. 24A-24C. SPR analysis of the selected peptides B1.1 and JP5. The B1.1 variant was analyzed at analyte concentrations of 7.5, 15, 30, 60, and 120 nM (FIG. 24A) and the JP5 variant was analyzed at analyte concentrations of 22.2, 66.6, 200, 600 and 1800 nM (FIG. 24B). (FIG. 24C) Binding kinetics of each peptide.
as §5
Surface plasmon resonance was used to evaluate binding of B1.1 and JP5 to both human and murine B7-H3 (FIGS. 24A-24C).

The test system of experiment [4] is B7-H3. Nature of the experiment: ka (M^-1s^-1).
Description: as §1
Head of the field: ka (M^-1s^-1)
as §2, §3, §4

Where a SMILES comes first, the peptide text is derived from it. Bridges are numbered along the chain shown (N, C = ends).

As to `CSCC[C@@H]1NC(=O)[C@H](CO)NC(=O)[C@H](Cc2c[nH]cn2)NC(=O)[C@@H]2CSSC[C@H](NC(=O)[C@H]([C@@H](C)O)NC(=O)[C@H](Cc3ccc(O)cc3)NC(=O)[C@H](Cc3ccccc3)NC1=O)C(=O)N[C@H](C(=O)N[C@@H](CO)C(=O)NCC(N)=O)CCCCNC(=O)CC[C@H](NC(=O)[C@H](CC(C)C)NC(=O)[C@H](C)NC(=O)[C@H](Cc1c[nH]c3ccccc13)NC(C)=O)C(=O)N[C@@H](CC(C)C)C(=O)N2` [B1.1, acWALQLCHSMFYTCKSG] (Ac-WALELCHSMFYTCKSG-NH2; lactam 4-14; disulfide 6-13), in experiment [1], the “kd (s^-1)” value came to 6.74e^-3. Further, the Kd in experiment [2] came to 43.5 nM. Further, the KD result in experiment [3] was “binds to murine B7-H3”. Besides, in experiment [4], the “ka (M^-1s^-1)” value is 1.55e^5.
